The target in one assay is human Gal-1 (hGal-1). The experiment in a line: Competitive binding assay: binding of biotinylated hGal-1 to microplate-adsorbed asialofetuin (ASF). The settings on record: Activities on hGal-1; mean values of several measurements. A digest of the protocol:
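Compounds diluted in DMSO competed with biotinylated hGal-3 or hGal-1 (300-1000 ng/mL) for binding to plate-adsorbed asialofetuin for 3 h at 4° C. Bound galectin was detected with streptavidin-peroxidase (80 ng/mL, 1 h, 4° C) and ABTS substrate; IC50 reported as mean of several measurements.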

A further assay has as its target human Gal-3 (hGal-3) (Homo sapiens (Human), UniProt P17931). The experiment in a line: Competitive binding assay: binding of biotinylated hGal-3 to microplate-adsorbed asialofetuin (ASF). The note with it: Activity on hGal-3; mean values of several measurements. A digest of the protocol: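 Biotinylated hGal-3 (300-1000 ng/mL) bound to ASF-coated wells with serially diluted compound, 3 h at 4° C. After washing, bound protein was detected with streptavidin-peroxidase (80 ng/mL, 1 h, 4° C) and ABTS substrate; IC50 values are means of several measurements.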

For orientation: IC50 means the midpoint of a concentration-inhibition curve. Read a high IC50 as weaker potency in that assay.

human Gal-1 (hGal-1), sequence (P09382 2-135 limits assumed): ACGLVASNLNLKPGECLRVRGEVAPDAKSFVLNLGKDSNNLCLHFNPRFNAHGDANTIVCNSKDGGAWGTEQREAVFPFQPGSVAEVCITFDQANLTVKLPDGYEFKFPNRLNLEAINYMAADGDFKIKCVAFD
human Gal-3 (hGal-3), sequence (P17931 whole entry): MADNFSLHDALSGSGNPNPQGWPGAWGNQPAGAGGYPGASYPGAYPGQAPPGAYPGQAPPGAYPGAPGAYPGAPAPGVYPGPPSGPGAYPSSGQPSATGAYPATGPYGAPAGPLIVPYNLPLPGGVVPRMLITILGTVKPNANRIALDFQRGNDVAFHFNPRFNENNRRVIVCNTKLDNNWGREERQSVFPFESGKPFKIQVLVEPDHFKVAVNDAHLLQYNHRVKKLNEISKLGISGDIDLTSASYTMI

Consider `CO[C@@H]1[C@@H](n2cc(-c3cc(F)c(F)c(F)c3)nn2)[C@@H](O)[C@@H](CO)O[C@@H]1CC1=NO[C@H](C2CCCCC2)C1` [Ex 1.129], for which the IC50 at human Gal-1 (hGal-1) came out at 14700 nM; at human Gal-3 (hGal-3), 270 nM.

With `CO[C@@H]1[C@@H](n2cc(-c3cc(F)c(F)c(F)c3)nn2)[C@@H](O)[C@@H](CO)O[C@@H]1Cc1cc(C23CCC(NC(=O)OC(C)(C)C)(CC2)CC3)on1` [Ex 1.130], the IC50 is 18100 nM on human Gal-1 (hGal-1) and 260 nM at human Gal-3 (hGal-3).

Consider `CO[C@@H]1[C@@H](n2cc(-c3cc(F)c(F)c(F)c3)nn2)[C@@H](O)[C@@H](CO)O[C@@H]1Cc1cc(C23CCC(N)(CC2)CC3)on1` [Ex 1.131], for which the IC50 on human Gal-1 (hGal-1) was found to be 7440 nM; on human Gal-3 (hGal-3) it was 140 nM.

For the compound `CO[C@@H]1[C@@H](n2cc(-c3cc(F)c(F)c(F)c3)nn2)[C@@H](O)[C@@H](CO)O[C@@H]1Cc1cc(C2(O)CCN(C(=O)OC(C)(C)C)CC2)on1` [Ex 1.132], the half-maximal inhibitory concentration (IC50) on human Gal-1 (hGal-1) worked out at 760 nM; on human Gal-3 (hGal-3) it was 69 nM.

As for `CO[C@@H]1[C@@H](n2cc(-c3cc(F)c(F)c(F)c3)nn2)[C@@H](O)[C@@H](CO)O[C@@H]1Cc1cc(C2(O)CCNCC2)on1` [Ex 1.133], the IC50 on human Gal-1 (hGal-1) is 10700 nM; at human Gal-3 (hGal-3), 230 nM.

For `CO[C@@H]1[C@@H](n2cc(-c3cc(F)c(F)c(F)c3)nn2)[C@@H](O)[C@@H](CO)O[C@@H]1Cc1cc(C2CCC(NC(=O)OC(C)(C)C)CC2)no1` (stereo partly drawn) [Ex 1.134], the IC50 turned out to be 10800 nM at human Gal-1 (hGal-1) and 84 nM on human Gal-3 (hGal-3).

Turning to `CO[C@@H]1[C@@H](n2cc(-c3cc(F)c(C)c(F)c3)nn2)[C@@H](O)[C@@H](CO)O[C@@H]1CC1CC(C2CCN(C(=O)OC(C)(C)C)CC2)=NO1` (stereo partly drawn) [Ex 1.135], the IC50 at human Gal-1 (hGal-1) stood at 9000 nM; on human Gal-3 (hGal-3), 100 nM.

For the compound `CO[C@@H]1[C@@H](n2cc(-c3ccc(C)c(F)c3)nn2)[C@@H](O)[C@@H](CO)O[C@@H]1CC1CC(C2CCN(C(=O)OC(C)(C)C)CC2)=NO1` (stereo partly drawn) [Ex 1.136], the concentration for half-maximal inhibition (IC50) at human Gal-1 (hGal-1) stood at 4770 nM; at human Gal-3 (hGal-3), 112 nM.

On to `CO[C@@H]1[C@@H](n2cc(-c3ccc(C)c(F)c3F)nn2)[C@@H](O)[C@@H](CO)O[C@@H]1CC1CC(C2CCN(C(=O)OC(C)(C)C)CC2)=NO1` (stereo partly drawn) [Ex 1.137], for which the half-inhibitory concentration (IC50) at human Gal-1 (hGal-1) worked out at 1880 nM; on human Gal-3 (hGal-3), 48 nM.

On to `CN=[S@@](=O)(C(C)C)N1CCC(c2cc(C[C@H]3O[C@H](CO)[C@H](O)[C@H](n4cc(-c5cc(F)c(F)c(F)c5)nn4)[C@H]3OC)no2)CC1` [Ex 1.138], for which the IC50 at human Gal-1 (hGal-1) turned out to be 15300 nM; at human Gal-3 (hGal-3), 130 nM.

`CN=[S@](=O)(C(C)C)N1CCC(c2cc(C[C@H]3O[C@H](CO)[C@H](O)[C@H](n4cc(-c5cc(F)c(F)c(F)c5)nn4)[C@H]3OC)no2)CC1` [Ex 1.139]: the IC50 at human Gal-1 (hGal-1) was found to be 1130 nM; at human Gal-3 (hGal-3), 42 nM.

As to `CO[C@@H]1[C@@H](n2cc(-c3ccc(Cl)c(F)c3F)nn2)[C@@H](O)[C@@H](CO)O[C@@H]1CC1CC(C2CCN(C(=O)OC(C)(C)C)CC2)=NO1` (stereo partly drawn) [Ex 1.140], the IC50 on human Gal-1 (hGal-1) came to 690 nM; on human Gal-3 (hGal-3), 49 nM.

With `CO[C@@H]1[C@@H](n2cc(-c3ccc(Br)c(F)c3F)nn2)[C@@H](O)[C@@H](CO)O[C@@H]1CC1CC(C2CCN(C(=O)OC(C)(C)C)CC2)=NO1` (stereo partly drawn) [Ex 1.141], the IC50 is 790 nM on human Gal-1 (hGal-1) and 97 nM at human Gal-3 (hGal-3).

With `CO[C@@H]1[C@@H](n2cc(-c3ccc(Br)c(F)c3F)nn2)[C@@H](O)[C@@H](CO)O[C@@H]1CC1CC(C2CCNCC2)=NO1` (stereo partly drawn) [Ex 1.142], the half-inhibitory concentration (IC50) on human Gal-1 (hGal-1) came out at 1320 nM; on human Gal-3 (hGal-3) it was 71 nM.

For `CO[C@@H]1[C@@H](n2cc(-c3ccc(F)c(F)c3F)nn2)[C@@H](O)[C@@H](CO)O[C@@H]1CC1CC(C2CCN(C(=O)OC(C)(C)C)CC2)=NO1` (stereo partly drawn) [Ex 1.143], the IC50 came out at 190 nM at human Gal-1 (hGal-1) and 100 nM at human Gal-3 (hGal-3).

Regarding `CO[C@@H]1[C@@H](n2cc(-c3ccc(F)c(F)c3F)nn2)[C@@H](O)[C@@H](CO)O[C@@H]1CC1CC(C2CCNCC2)=NO1` (stereo partly drawn) [Ex 1.144], the values for the IC50 on human Gal-1 (hGal-1) and on human Gal-3 (hGal-3) were 740 nM and 180 nM, respectively.

As for `CO[C@@H]1[C@@H](n2cc(-c3cc(F)c(Cl)c(F)c3)nn2)[C@@H](O)[C@@H](CO)O[C@@H]1CC1CC(C2CCN(C(=O)OC(C)(C)C)CC2)=NO1` (stereo partly drawn) [Ex 1.145], the values for the IC50 at human Gal-1 (hGal-1) and at human Gal-3 (hGal-3) were 1560 nM and 170 nM, respectively.

`CO[C@@H]1[C@@H](n2cc(-c3cc(F)c(Cl)c(F)c3)nn2)[C@@H](O)[C@@H](CO)O[C@@H]1CC1CC(C2CCNCC2)=NO1` (stereo partly drawn) [Ex 1.146]: the values for the IC50 on human Gal-1 (hGal-1) and on human Gal-3 (hGal-3) were 4660 nM and 240 nM, respectively.

As for `CCOC(=O)N1CCC(c2cc(C[C@H]3O[C@H](CO)[C@H](O)[C@H](n4cc(-c5ccc(Cl)c(F)c5)nn4)[C@H]3OC)no2)CC1` [Ex 1.149], the IC50 was 470 nM on human Gal-1 (hGal-1) and 84 nM on human Gal-3 (hGal-3).

On to `CCOC(=O)N1CCC(c2cc(C[C@H]3O[C@H](CO)[C@H](O)[C@H](n4cc(-c5ccc(F)c(F)c5F)nn4)[C@H]3OC)no2)CC1` [Ex 1.150], for which the figures for the 50% inhibitory concentration (IC50) at human Gal-1 (hGal-1) and on human Gal-3 (hGal-3) were 140 nM and 23 nM, respectively.

`CCOC(=O)N1CCC(c2cc(C[C@H]3O[C@H](CO)[C@H](O)[C@H](n4cc(-c5ccc(C)c(F)c5F)nn4)[C@H]3OC)no2)CC1` [Ex 1.151]: the IC50 was 1020 nM on human Gal-1 (hGal-1) and 19 nM at human Gal-3 (hGal-3).

On to `CO[C@@H]1[C@@H](n2cc(-c3cc(F)c(C)c(F)c3)nn2)[C@@H](O)[C@@H](CO)O[C@@H]1Cc1cc(C2CCN(S(C)(=O)=O)CC2)on1` [Ex 1.152], for which the figures for the half-inhibitory concentration (IC50) at human Gal-1 (hGal-1) and on human Gal-3 (hGal-3) were 1510 nM and 39 nM, respectively.

`CO[C@@H]1[C@@H](n2cc(-c3ccc(C)c(F)c3)nn2)[C@@H](O)[C@@H](CO)O[C@@H]1Cc1cc(C2CCN(S(C)(=O)=O)CC2)on1` [Ex 1.153]: the IC50 came out at 1600 nM on human Gal-1 (hGal-1) and 67 nM at human Gal-3 (hGal-3).

`CO[C@@H]1[C@@H](n2cc(-c3ccc(Cl)c(F)c3F)nn2)[C@@H](O)[C@@H](CO)O[C@@H]1Cc1cc(C2CCN(S(C)(=O)=O)CC2)on1` [Ex 1.154]: the IC50 is 360 nM at human Gal-1 (hGal-1) and 33 nM at human Gal-3 (hGal-3).

With `CO[C@@H]1[C@@H](n2cc(-c3ccc(Cl)c(F)c3)nn2)[C@@H](O)[C@@H](CO)O[C@@H]1Cc1cc(C2CCN(S(C)(=O)=O)CC2)on1` [Ex 1.156], the IC50 on human Gal-1 (hGal-1) was 940 nM; on human Gal-3 (hGal-3), 31 nM.

For the compound `CO[C@@H]1[C@@H](n2cc(-c3ccc(F)c(F)c3F)nn2)[C@@H](O)[C@@H](CO)O[C@@H]1Cc1cc(C2CCN(S(C)(=O)=O)CC2)on1` [Ex 1.157], the IC50 on human Gal-1 (hGal-1) was determined as 94 nM; at human Gal-3 (hGal-3), 30 nM.

With `CO[C@@H]1[C@@H](n2cc(-c3cc(F)c(Cl)c(F)c3)nn2)[C@@H](O)[C@@H](CO)O[C@@H]1Cc1cc(C2CCN(S(C)(=O)=O)CC2)on1` [Ex 1.158], the IC50 at human Gal-1 (hGal-1) stood at 1520 nM; on human Gal-3 (hGal-3), 66 nM.

For the compound `CO[C@@H]1[C@@H](n2cc(-c3ccc(C)c(F)c3F)nn2)[C@@H](O)[C@@H](CO)O[C@@H]1Cc1cc(C2CCN(S(C)(=O)=O)CC2)on1` [Ex 1.159], the IC50 was 1530 nM at human Gal-1 (hGal-1) and 57 nM at human Gal-3 (hGal-3).

For the compound `CO[C@@H]1[C@@H](n2cc(-c3cc(F)cc(Cl)c3)nn2)[C@@H](O)[C@@H](CO)O[C@@H]1Cc1cc(C2CCN(S(C)(=O)=O)CC2)on1` [Ex 1.160], the IC50 at human Gal-1 (hGal-1) stood at 730 nM; at human Gal-3 (hGal-3) it was 78 nM.

Consider `CO[C@@H]1[C@@H](n2cc(-c3cc(F)c(C)c(F)c3)nn2)[C@@H](O)[C@@H](CO)O[C@@H]1Cc1cc(C2CCN(C(C)=O)CC2)on1` [Ex 1.161], for which the values for the IC50 on human Gal-1 (hGal-1) and at human Gal-3 (hGal-3) were 1660 nM and 34 nM, respectively.
